Patent US11040026B2, “Muscarinic M1 receptor positive allosteric modulators” (SUVEN LIFE SCIENCES LIMITED, priority 2016, dated 2021)
Counter-ions that a name gives are not always drawn.

Each compound was assayed against T1, muscarinic M1 receptor (Homo sapiens, UniProt P11229) (assay: Allosteric potency EC50 for muscarinic M1 receptor (CHO pCRE-Luc reporter assay)). Settings: in presence of EC20 of acetylcholine; CHO cells, luciferase reporter, 4 hours.
T1 sequence (P11229 1-460): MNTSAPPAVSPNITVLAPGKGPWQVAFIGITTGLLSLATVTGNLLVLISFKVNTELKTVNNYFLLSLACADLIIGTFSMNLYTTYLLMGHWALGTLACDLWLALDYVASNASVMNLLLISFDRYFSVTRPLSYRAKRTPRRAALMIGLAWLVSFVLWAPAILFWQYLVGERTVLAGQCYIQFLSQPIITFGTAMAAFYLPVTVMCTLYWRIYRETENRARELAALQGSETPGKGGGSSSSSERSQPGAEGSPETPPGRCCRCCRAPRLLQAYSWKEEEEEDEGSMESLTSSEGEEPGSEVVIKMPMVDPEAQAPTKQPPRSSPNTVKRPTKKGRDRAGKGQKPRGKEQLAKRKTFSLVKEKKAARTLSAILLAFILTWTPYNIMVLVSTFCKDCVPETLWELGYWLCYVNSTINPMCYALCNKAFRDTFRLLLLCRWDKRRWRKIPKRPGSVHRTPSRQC
Format: cell-based
Experimental: Determination of Allosteric Potency EC50 Values for Muscarinic M1 Receptor:
A stable CHO cell line expressing recombinant human Muscarinic M1 receptor and pCRE-Luc reporter system was used for cell-based assay. The assay offers a non-radioactive based approach to determine binding of a compound to GPCRs. In this specific assay, the level of intracellular cyclic AMP which is modulated by activation or inhibition of the receptor is measured. The recombinant cells harbor luciferase reporter gene under the control of cyclic AMP response element.
The above cells were grown in 96 well clear bottom white plates in Hams F12 medium containing 10% fetal bovine serum (FBS). Prior to the addition of compounds or standard agonist, cells were serum starved overnight. Increasing concentrations of test compounds were added along with EC20 of acetylcholine in OptiMEM medium to the cells. The incubation was continued at 37° C. in CO2 incubator for 4 hours. Medium was removed and cells were washed with phosphate buffered saline. The cells were lysed and luciferase activity was measured in a Luminometer. Luminescence units were plotted against the compound concentrations using Graphpad software. EC50 values of the compounds were defined as the concentration required in stimulating the luciferase activity by 50% in presence of EC20 of acetylcholine and the results are provided in table 1.

| Compound | EC50 [nM] |
| --- | --- |
| COc1ccc(Cc2cc(C(=O)N[C@H]3CCCC[C@@H]3O)nc3c2ccn3C)cn1 [Example 2, N-[(1S,2S)-2-Hydroxycyclohexyl]-4-(2-methoxypyridin-5-ylmethyl)-1-methyl-1H-pyrrolo[2,3-b]pyridine-6-carboxamide] | 1080 |
| Cn1ccc2c(Cc3ccc(F)nc3)cc(C(=O)N[C@H]3CCCC[C@@H]3O)nc21 [Example 3, N-[(1S,2S)-2-Hydroxycyclohexyl]-4-(2-fluoropyridin-5-ylmethyl)-1-methyl-1H-pyrrolo[2,3-b]pyridine-6-carboxamide] | 977 |
| Cn1ccc2c(Cc3ccc(F)cc3)cc(C(=O)N[C@H]3CCCC[C@@H]3O)nc21 [Example 4, N-[(1S,2S)-2-Hydroxycyclohexyl]-4-(4-fluorobenzyl)-1-methyl-1H-pyrrolo[2,3-b]pyridine-6-carboxamide] | 811 |
| Cn1ccc2c(Cc3ccc(-c4cscn4)cc3)cc(C(=O)N[C@H]3CCCC[C@@H]3O)nc21 [Example 5, N-[(1S,2S)-2-Hydroxycyclohexyl]-4-(4-thiazol-4-ylbenzyl)-1-methyl-1H-pyrrolo[2,3-b]pyridine-6-carboxamide] | 130 |
| Cn1ccc2c(Cc3ccc(-n4cccn4)cc3)cc(C(=O)N[C@H]3CCCC[C@@H]3O)nc21 [Example 6, N-[(1S,2S)-2-Hydroxycyclohexyl]-4-(4-pyrazol-1-ylbenzyl)-1-methyl-1H-pyrrolo[2,3-b]pyridine-6-carboxamide] | 15 |
| Cn1cc(-c2ccc(Cc3cc(C(=O)N[C@H]4CCCC[C@@H]4O)nc4c3ccn4C)cc2)cn1 [Example 7, N-[(1S,2S)-2-Hydroxycyclohexyl]-4-[4-(1-methyl-1H-pyrazol-4-yl)benzyl]-1-methyl-1H-pyrrolo[2,3-b]pyridine-6-carboxamide] | 8 |
| Cn1cc(-c2ccc(Cc3cc(C(=O)N[C@H]4CCCC[C@@H]4O)nc4c3ccn4C)c(F)c2)cn1 [Example 8, N-[(1S,2S)-2-Hydroxycyclohexyl]-4-[2-fluoro-4-(1-methyl-1H-pyrazol-4-yl)benzyl]-1-methyl-1H-pyrrolo[2,3-b]pyridine-6-carboxamide] | 17 |
| Cc1ccc(Cc2cc(C(=O)N[C@H]3CCCC[C@@H]3O)nc3c2ccn3C)cn1 [Example 9, N-[(1S,2S)-2-Hydroxycyclohexyl]-4-(2-methylpyridin-5-ylmethyl)-1-methyl-1H-pyrrolo[2,3-b]pyridine-6-carboxamide] | 1570 |
| Cn1ccc2c(Cc3cc(F)ncc3F)cc(C(=O)N[C@H]3CCCC[C@@H]3O)nc21 [Example 11, N-[(1S,2S)-2-Hydroxycyclohexyl]-4-(2,5-difluoropyridin-4-ylmethyl)-1-methyl-1H-pyrrolo[2,3-b]pyridine-6-carboxamide] | 1720 |
| Cn1ccc2c(Cc3ccc4ncsc4c3)cc(C(=O)N[C@H]3CCCC[C@@H]3O)nc21 [Example 12, N-[(1S,2S)-2-Hydroxycyclohexyl]-4-(benzothiazol-6-ylmethyl)-1-methyl-1H-pyrrolo[2,3-b]pyridine-6-carboxamide] | 306 |
| Cn1ccc2c(Cc3ccc(-c4ccc(F)nc4)nc3)cc(C(=O)N[C@H]3CCCC[C@@H]3O)nc21 [Example 13, N-[(1S,2S)-2-Hydroxycyclohexyl]-4-(2′-fluoro-[2,5]bipyridinyl-5-ylmethyl)-1-methyl-1H-pyrrolo[2,3-b]pyridine-6-carboxamide] | 617 |
| Cn1ccc2c(Cc3ccncc3)cc(C(=O)N[C@H]3CCCC[C@@H]3O)nc21 [Example 14, N-[(1S,2S)-2-Hydroxycyclohexyl]-4-(pyridin-4-ylmethyl)-1-methyl-1H-pyrrolo[2,3-b]pyridine-6-carboxamide] | 891 |
| Cn1cc(-c2ccc(Cc3cc(C(=O)N[C@H]4CCCC[C@@H]4O)nc4c3ccn4C)cn2)cn1 [Example 15, N-[(1S,2S)-2-Hydroxycyclohexyl]-4-[2-(1-methyl-1H-pyrazol-4-yl)pyridin-5-ylmethyl]-1-methyl-1H-pyrrolo[2,3-b]pyridine-6-carboxamide] | 38 |
| Cn1ccc2c(Cc3cccc(F)c3F)cc(C(=O)N[C@H]3CCCC[C@@H]3O)nc21 [Example 16, N-[(1S,2S)-2-Hydroxycyclohexyl]-4-(2,3-difluorobenzyl)-1-methyl-1H-pyrrolo[2,3-b]pyridine-6-carboxamide] | 1290 |
| Cc1cc(Cc2cc(C(=O)N[C@H]3CCCC[C@@H]3O)nc3c2ccn3C)ccn1 [Example 17, N-[(1S,2S)-2-Hydroxycyclohexyl]-4-(2-methylpyridin-4-ylmethyl)-1-methyl-1H-pyrrolo[2,3-b]pyridine-6-carboxamide] | 1630 |
| COc1ccc(Cc2cc(C(=O)N[C@H]3CCCC[C@@H]3O)nc3c2ccn3C)cc1 [Example 19, N-[(1S,2S)-2-Hydroxycyclohexyl]-4-(4-methoxybenzyl)-1-methyl-1H-pyrrolo[2,3-b]pyridine-6-carboxamide] | 1110 |
| CSc1ccc(Cc2cc(C(=O)N[C@H]3CCCC[C@@H]3O)nc3c2ccn3C)cn1 [Example 20, N-[(1S,2S)-2-Hydroxycyclohexyl]-4-(2-methylsulfanylpyridin-5-ylmethyl)-1-methyl-1H-pyrrolo[2,3-b]pyridine-6-carboxamide] | 315 |
| Cc1ncccc1-c1ccc(Cc2cc(C(=O)N[C@H]3CCCC[C@@H]3O)nc3c2ccn3C)cc1 [Example 21, N-[(1S,2S)-2-Hydroxycyclohexyl]-4-[4-(2-methylpyridin-3-yl)benzyl]-1-methyl-1H-pyrrolo[2,3-b]pyridine-6-carboxamide] | 1050 |
| O=C(N[C@H]1CCCC[C@@H]1O)c1cc(Cc2ccc(Cl)nc2)c2ccn(CCF)c2n1 [Example 23, N-[(1S,2S)-2-Hydroxycyclohexyl]-4-(2-chloropyridin-5-ylmethyl)-1-(2-fluoroethyl)-1H-pyrrolo[2,3-b]pyridine-6-carboxamide] | 727 |
| Cn1ccc2c(Cc3ccc(-c4cscn4)cc3)cc(C(=O)NCC(C)(C)O)nc21 [Example 24, N-(2-Hydroxy-2-methylpropyl)-4-[4-(thiazol-4-yl)benzyl]-1-methyl-1H-pyrrol[2,3-b]pyridine-6-carboxamide] | 834 |
| Cn1ccc2c(Cc3cccc(F)c3)cc(C(=O)N[C@H]3CCCC[C@@H]3O)nc21 [Example 25, N-[(1S,2S)-2-Hydroxycyclohexyl]-4-(3-fluorobenzyl)-1-methyl-1H-pyrrolo[2,3-b]pyridine-6-carboxamide] | 362 |
| Cn1ccc2c(Cc3ccc(-c4cscn4)cc3)cc(C(=O)NCC3(O)CCCC3)nc21 [Example 26, N-(1-Hydroxycyclopentylmethyl)-4-[4-(thiazol-4-yl)benzyl]-1-methyl-1H-pyrrolo[2,3-b]pyridine-6-carboxamide] | 221 |
| Cn1ccc2c(Cc3cccnc3)cc(C(=O)N[C@H]3CCCC[C@@H]3O)nc21 [Example 27, N-[(1S,2S)-2-Hydroxycyclohexyl]-4-(pyridin-3-ylmethyl)-1-methyl-1H-pyrrolo[2,3-b]pyridine-6-carboxamide] | 234 |
| CN1CCc2c(Cc3ccc(Cl)nc3)cc(C(=O)N[C@H]3CCCC[C@@H]3O)nc21 [Example 72, N-[(1S,2S)-2-Hydroxycyclohexyl]-4-(2-chloropyridin-5-ylmethyl)-1-methyl-2,3-dihydro-1H-pyrrolo[2,3-b]pyridine-6-carboxamide] | 494 |
| CN1CCc2c(Cc3ccc(F)cc3)cc(C(=O)N[C@H]3CCCC[C@@H]3O)nc21 [Example 76, N-[(1S,2S)-2-Hydroxycyclohexyl]-4-(4-fluorobenzyl)-1-methyl-2,3-dihydro-1H-pyrrolo[2,3-b]pyridine-6-carboxamide] | 380 |
| COc1ccc(Cc2cc(C(=O)N[C@H]3CCCC[C@@H]3O)nc3c2CCN3C)cc1 [Example 77, N-[(1S,2S)-2-Hydroxycyclohexyl]-4-(4-methoxybenzyl)-1-methyl-2,3-dihydro-1H-pyrrolo[2,3-b]pyridine-6-carboxamide] | 342 |
| Cn1cc(-c2ccc(Cc3cc(C(=O)N[C@H]4CCCC[C@@H]4O)nc4c3CCNC4)cc2)cn1 [Example 90, N-[(1S,2S)-2-Hydroxycyclohexyl]-4-[4-(1-methyl-1H-pyrazol-4-yl)-benzyl-5,6,7,8-tetrahydro[1,7]naphthyridine-2-carboxamide Hydrochloride] | 18 |
| COc1ccc(Cc2cc(C(=O)N[C@H]3CCCC[C@@H]3O)nc3c2OCCO3)cc1 [Example 104, N-[(1S,2S)-2-Hydroxycyclohexyl]-8-(4-methoxybenzyl)-2,3-dihydro-[1,4]dioxino[2,3-b]pyridine-6-carboxamide] | 231 |
| Cn1cc(-c2ccc(Cc3cc(C(=O)N[C@H]4CCCC[C@@H]4O)nc4c3OCCO4)cc2)cn1 [Example 106, N-[(1S,2S)-2-Hydroxycyclohexyl]-8-[4-(1-methyl-1H-pyrazol-4-yl)-benzyl]-2,3-dihydro-[1,4]dioxino[2,3-b]pyridine-6-carboxamide] | 14 |
